{"source": "patent US20250186405A1", "about": "“Compound For Use In Treating Narcolepsy” (Alkermes, Inc., priority 2023, published 2025)", "assay": "Part 3 relative bioavailability (tablet vs powder-in-capsule) with food effect: plasma PK, 10 mg", "type": "in vivo, human", "conditions": "for increase of peak plasma concentration, fed vs fasted: 10 mg tablet; for AUC(0-inf) / half-life / Cmax / Tmax: human, plasma, oral", "experimental": "Part 3 compared the relative bioavailability (RelBA) of Compound A between a tablet formulation and the powder-in-capsule formulation. In addition, the food effect (FE) on the bioavailability of Compound A was assessed following administration of tablet formulation. Dose levels were as follows:\nThe Part 3 (RelBA with FE) evaluation was conducted using a 2-sequence, 3-period crossover study design in approximately 12 subjects. Subjects in Part 3 were randomized 1:1 to receive 1 of 2 sequences consisting of 3 periods with up to 72 hours of washout between treatments. The first 2 periods were dosed under fasted state and the third period was dosed in a fed state (high-fat meal).\nSequence 1 began with powder-in-capsule formulation in Period 1 (fasted), followed by tablet formulation in Period 2 (fasted) and tablet formulation in Period 3 (fed). Sequence 2 began with tablet formulation in Period 1 (fasted), followed by powder-in-capsule formulation in Period 2 (fasted) and tablet formulation in Period 3 (fed).\nIn treatment period(s) under the fed condition, following overnight fast, all subjects were given a high-fat breakfast. Within 30 minutes of starting the consumption of the breakfast, the assigned treatment was administered. […] There was a 72-hour washout period between the treatments.\nRelative bioavailability analysis: A mixed effects model was used to evaluate the effect of a tablet formulation on the PK of Compound A. The primary PK parameters, namely, Cmax, AUC0-t, and […], were logarithmically transformed and used as the dependent variable, with treatment (tablet formulation or powder-in-capsule) as a fixed effect, and subject as a random effect. The ratio of the geometric means of the 2 treatments was obtained from the analysis, and a 2-sided 90% CI for the ratio was estimated. In this comparison, the same dose level of Compound A administered under tablet formulation is the test and powder-in-capsule is the reference. Thus, the comparison of interest is as follows: Fasted in new formulation (Test) vs Fasted in powder-in-capsule (Reference).\nFood effect analysis: A mixed effects model was used to evaluate the effect of a high-fat, high caloric meal on the PK of Compound A in the tablet formulation. The primary PK parameters, namely, Cmax, AUC0-t, and AUC0-∞, were logarithmically transformed and used as the dependent variable, with treatment (fed or fasted) as a fixed effect, and subject as a random effect. The ratio of the geometric means of the 2 treatments was obtained from the analysis, and a 2-sided 90% CI for the ratio was estimated. In this comparison, the same dose level of Compound A administered under fed conditions is the test and Compound A administered under fasted conditions is the reference. Thus, the comparison of interest is as follows: Fed a high-fat meal in tablet formulation (Test) vs Fasted in tablet formulation (Reference).\nFood effect was studied following a high fat (cohort 1) and low fat (cohort 2) meal. Both cohorts were completed in independent studies. For cohort 1, a high-fat meal was served consisting of 800-1,000 total calories with 150 calories from protein, 250 calories from carbohydrates, 500-600 calories from fat (≥50 percent of calories from fat). For cohort 2, a low-fat meal was served consisting of 400-500 total calories with 100-125 calories from fat (25 percent of calories from fat).", "key": {"[1]": {"conditions": "10 mg, 10 mg Capsule (Fasted), Cohort 1, N = 9"}, "[2]": {"conditions": "10 mg, 10 mg Tablet (Fasted), Cohort 1, N = 8"}, "[3]": {"conditions": "10 mg, 10 mg Tablet (Fasted), Cohort 2"}, "[4]": {"conditions": "10 mg, 10 mg Tablet (Fasted), Cohort 2, N = 8"}, "[5]": {"conditions": "10 mg, 10 mg Tablet (Fed, high-fat), Cohort 1"}, "[6]": {"conditions": "10 mg, 10 mg Tablet (Fed, low-fat), Cohort 2"}, "[7]": {"conditions": "10 mg, 10 mg Tablet (Fed, low-fat), Cohort 2, N = 10"}}, "data": [{"molecule": "CS(=O)(=O)N[C@H]1CCCN2C(=O)COc3ccccc3C3CCC(CC3)OCC12", "note": "(stereo partly drawn) [Compound A, N-[(4S,4aR,7α,10α)-1,2,3,4,4a,5,7,8,9,10,16,17-dodecahydro-17-oxo-7,10-ethanopyrido[1,2-d][1,7,4]benzodioxaazacyclotridecin-4-yl]methanesulfonamide]", "values": [{"measurement": "increase of peak plasma concentration, fed vs fasted", "setting": "high-fat meal, Cohort 1", "value": 3, "unit": "fold"}, {"measurement": "increase of peak plasma concentration, fed vs fasted", "setting": "low-fat meal, Cohort 2", "value": "approximately 2 fold"}, {"measurement": "AUC0-∞ ratio (tablet/capsule)", "setting": "10 mg, fasted", "value": 1.2}, {"measurement": "Cmax ratio (tablet Cmax/capsule Cmax)", "setting": "10 mg, fasted", "value": 0.9}, {"measurement": "AUC(0-inf)", "setting": "[1]", "value": 124, "unit": "ng·h/mL"}, {"measurement": "half-life", "setting": "[1]", "value": 10.8, "unit": "h"}, {"measurement": "Cmax", "setting": "10 mg, 10 mg Capsule (Fasted), Cohort 1, geometric mean", "value": 11.8, "unit": "ng/mL"}, {"measurement": "Tmax", "setting": "10 mg, 10 mg Capsule (Fasted), Cohort 1, median", "value": 2, "unit": "h"}, {"measurement": "AUC(0-inf)", "setting": "[2]", "value": 144, "unit": "ng·h/mL"}, {"measurement": "half-life", "setting": "[2]", "value": 11, "unit": "h"}, {"measurement": "Cmax", "setting": "10 mg, 10 mg Tablet (Fasted), Cohort 1, geometric mean", "value": 10.8, "unit": "ng/mL"}, {"measurement": "Tmax", "setting": "10 mg, 10 mg Tablet (Fasted), Cohort 1, median", "value": 3.5, "unit": "h"}, {"measurement": "Cmax", "setting": "[3]", "value": 14.2, "unit": "ng/mL"}, {"measurement": "Tmax", "setting": "[3]", "value": 2.5, "unit": "h"}, {"measurement": "AUC(0-inf)", "setting": "[4]", "value": 189, "unit": "ng·h/mL"}, {"measurement": "half-life", "setting": "[4]", "value": 9.22, "unit": "h"}, {"measurement": "AUC(0-inf)", "setting": "[5]", "value": 140, "unit": "ng·h/mL"}, {"measurement": "Cmax", "setting": "[5]", "value": 30.1, "unit": "ng/mL"}, {"measurement": "half-life", "setting": "[5]", "value": 2.8, "unit": "h"}, {"measurement": "Tmax", "setting": "10 mg, 10 mg Tablet (Fed, high-fat), Cohort 1, median", "value": 3.5, "unit": "h"}, {"measurement": "Cmax", "setting": "[6]", "value": 32.1, "unit": "ng/mL"}, {"measurement": "Tmax", "setting": "[6]", "value": 3.01, "unit": "h"}, {"measurement": "AUC(0-inf)", "setting": "[7]", "value": 180, "unit": "ng·h/mL"}, {"measurement": "half-life", "setting": "[7]", "value": 9.69, "unit": "h"}]}]}
